Experimental data: the supplement of paper PMC4862054

Tests used:
Details in all cases: incubation time: 72 h
DU-4475 [1] = test: normalised viability (% of control), CellTiter-Blue; higher = more viable cells (100 = DMSO, 0 = benzethonium chloride kill control)
Method: (§1)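 DSRT, CellTiter-Blue viability, 72 h incubation. Signal is normalised to DMSO and benzethonium chloride controls. Value is the normalised response at dose 1.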

HCC1143 [2] = test: as above
Method: as §1

HDQ-P1 [3] = test: as above
Method: as §1

SK-BR-3 [4] = test: as above
Method: as §1

Hs578T [5] = test: as above
Method: as §1

MDA-MB-231 [6] = test: as above
Method: as §1

CAL-120 [7] = test: as above
Method: as §1

CAL-85-1 [8] = test: as above
Method: as §1

MDA-MB-436 [9] = test: as above
Method: as §1

HCC1937 [10] = test: as above
Method: as §1

HCC1599 [11] = test: as above
Method: as §1

BT-549 [12] = test: as above
Method: as §1

CAL-148 [13] = test: as above
Method: as §1

CAL-51 [14] = test: as above
Method: as §1

BT-474 [15] = test: as above
Method: as §1

MDA-MB-453 [16] = test: as above
Method: as §1

MFM-223 [17] = test: as above
Method: as §1

MDA-MB-468 [18] = test: as above
Method: as §1

DU-4475 [19] = test: normalised response (% of control), CellTiter-Glo; higher = more viable cells (100 = DMSO, 0 = benzethonium chloride kill control)
Outline: (§2)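 After 72 h with compound in 384-well plates, breast cancer cell lines seeded as 20 µl suspension were read for CellTox Green fluorescence at 485/520 nm. CellTiter-Glo luminescence was then read after 10 min at room temperature. Compound was present at 5 concentrations in 10-fold steps over a 10,000-fold range set per compound, and plates were normalised to 0.1 % DMSO (100) and a positive kill control (0). Values are normalised signals, each at a single concentration.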

HCC1143 [20] = test: as above
Outline: as §2

HDQ-P1 [21] = test: as above
Outline: as §2

SK-BR-3 [22] = test: as above
Outline: as §2

Hs578T [23] = test: as above
Outline: as §2

MDA-MB-231 [24] = test: as above
Outline: as §2

CAL-120 [25] = test: as above
Outline: as §2

CAL-85-1 [26] = test: as above
Outline: as §2

MDA-MB-436 [27] = test: as above
Outline: as §2

HCC1937 [28] = test: as above
Outline: as §2

HCC1599 [29] = test: as above
Outline: as §2

BT-549 [30] = test: as above
Outline: as §2

CAL-148 [31] = test: as above
Outline: as §2

CAL-51 [32] = test: as above
Outline: as §2

MCF-10A = test: as above
Outline: as §2

BT-474 [33] = test: as above
Outline: as §2

MDA-MB-453 [34] = test: as above
Outline: as §2

MFM-223 [35] = test: as above
Outline: as §2

MDA-MB-468 [36] = test: as above
Outline: as §2

Structure (SMILES) | normalised viability (DU-4475 [1]) | normalised viability (HCC1143 [2]) | normalised viability (HDQ-P1 [3]) | normalised viability (SK-BR-3 [4]) | normalised viability (Hs578T [5]) | normalised viability (MDA-MB-231 [6]) | normalised viability (CAL-120 [7]) | normalised viability (CAL-85-1 [8]) | normalised viability (MDA-MB-436 [9]) | normalised viability (HCC1937 [10]) | normalised viability (HCC1599 [11]) | normalised viability (BT-549 [12]) | normalised viability (CAL-148 [13]) | normalised viability (CAL-51 [14]) | normalised viability (BT-474 [15]) | normalised viability (MDA-MB-453 [16]) | normalised viability (MFM-223 [17]) | normalised viability (MDA-MB-468 [18]) | normalised response (DU-4475 [19]) | normalised response (HCC1143 [20]) | normalised response (HDQ-P1 [21]) | normalised response (SK-BR-3 [22]) | normalised response (Hs578T [23]) | normalised response (MDA-MB-231 [24]) | normalised response (CAL-120 [25]) | normalised response (CAL-85-1 [26]) | normalised response (MDA-MB-436 [27]) | normalised response (HCC1937 [28]) | normalised response (HCC1599 [29]) | normalised response (BT-549 [30]) | normalised response (CAL-148 [31]) | normalised response (CAL-51 [32]) | normalised response (MCF-10A) | normalised response (BT-474 [33]) | normalised response (MDA-MB-453 [34]) | normalised response (MFM-223 [35]) | normalised response (MDA-MB-468 [36])
CC(C)(C)c1cnc(CSc2cnc(NC(=O)C3CCNCC3)s2)o1 [SNS-032] (1 nM) | 99% | 85.9% | 102% | 101% | 104% | 97.7% | 86.2% | 92.7% | 113% | 103% | 101% | 113% | 113% | 113% | 101% | 103% | 93.1% | 104% | 98.2% | 97.3% | 95% | 90.8% | 97.6% | 97.5% | 91.2% | 105% | 84.1% | 90.8% | 96.3% | 101% | 92.2% | 86.2% | 95.5% | 92.2% | 99.2% | 92% | 92%
CC1(C)CNc2cc(NC(=O)c3cccnc3NCc3ccncc3)ccc21 [Motesanib] (1 nM) | 94.1% | 86.3% | 84.2% | 82.2% | 103% | 76.7% | 79.6% | 75.9% | 71.3% | 93.4% | 84.8% | 103% | 96.5% | 110% | 96.6% | 85% | 77.8% | 87.1% | 99.9% | 99% | 93.5% | 92.1% | 96.9% | 97.1% | 94% | 96% | 94.8% | 93.1% | 91.5% | 99.7% | 89.4% | 107% | 91.8% | 91.2% | 103% | 101% | 103%
CC[C@@H]1C(=O)OC[C@@H]1Cc1cncn1C [Pilocarpine] (4 nM) | 99.7% | 97.6% | 133% | 91.8% | 92.9% | 97.1% | 100% | 96.3% | 113% | 94.3% | 85.4% | 103% | 108% | 108% | 74.9% | 99.1% | 88.8% | 104% | 100% | 93.7% | 95.7% | 99.2% | 103% | 96.1% | 94% | 95% | 79.3% | 92.8% | 76.7% | 101% | 96.4% | 123% | 94.6% | 91.7% | 111% | 101% | 98.4%
O=NN(CCCl)C(=O)NCCCl [Carmustine] (1 nM) | 120% | 90.5% | 111% | 99.8% | 134% | 133% | 94.2% | 87.8% | 75.7% | 88.8% | 97% | 103% | 115% | 107% | 87.5% | 108% | 93.5% | 106% | 103% | 97.8% | 99.3% | 90.5% | 100% | 98.2% | 100% | 94.4% | 80% | 97.6% | 103% | 97.1% | 89.3% | 87.1% | 87.3% | 97% | 109% | 94.2% | 98.1%
